# Measurements as given in US7267964B2, “DNA molecules encoding ligand gated ion channels from Dermacentor variabilis” (priority 2000, dated 2007).
# What was measured:
# Type in all cases: cell-based, Dermacentor variabilis
# [1] = system: DvLGIC/GluCl 1; test: Two-microelectrode voltage clamp of Xenopus oocytes injected with DvLGIC/GluCl 1 RNA
# Source text: (§1) Synthesis of in vitro transcribed capped RNA—A PCR strategy was used to add the T7 promoter upstream of the initiating methionine (ATG) and a polyA^+ tail following the stop codon (TAG) of the open reading frame (ORF) of clones DvLGIC/GluCl1, DvLGIC/GluCl 11, DvLGIC/GluCl 7-1 and DvLGIC/GluCl 10-2. Amplified ORFs which contained the flanking T7 promoter and polyA^+ tail were used directly as templates in the in vitro transcription reaction (mMessage mMachine™, Ambion, Austin, Tex.). After removal of DNA template, the volume was adjusted to 100 μl with nuclease free water, and RNA purified using a G-50 Sephadex Column (Boehringer Mannheim, Indianapolis, Ind.). The elutate was extracted with an equal volume of phenol/chloroform, followed with a second chloroform extraction, precipitated with isopropyl alcohol, and resuspended in nuclease-free water to a storage concentration of 1 μg/μl.
# (§2) Xenopus laevis oocytes were prepared and injected using standard methods previously described [Arena, J. P., Liu, K. K., Paress, P. S. & Cully, D. F. Mol. Pharmacol. 40, 368-374 (1991); Arena, J. P., Liu, K. K., Paress, P. S., Schaeffer, J. M. & Cully, D. F., Mol. Brain Res. 15, 339-348 (1992)]. Adult female Xenopus laevis were anesthetized with 0.17% tricaine methanesulfonate and the ovaries were surgically removed and placed in a solution consisting of (mM): NaCl 82.5, KCl 2, MgCl2 1, HEPES 5, NaPyruvate 2.5, Penicillin G. 100,000 units/L, Streptomycin Sulfate 1000 mg/L, pH 7.5 (Mod. OR-2). Ovarian lobes were broken open, rinsed several times in Mod. OR-2, and incubated in 0.2% collagenase (Sigma, Type1) in Mod. OR-2 at room temperature with gentle shaking. After 1 hour the collagenase solution was renewed and the oocytes were incubated for an additional 30-90 min until approximately 50% of the oocytes were released from the ovaries. Stage V and VI oocytes were selected and placed in media containing (mM): NaCl 96, KCl 2, MgCl2 1, CaCl2 1.8, HEPES 5, NaPyruvate 2.5, theophylline 0.5, gentamicin […], pH 7.5 (ND-96) for 16-24 hours before injection. Oocytes were injected with 50 nl of DvLGIC/GluCl1 or DvLGIC/GluCl 7-1 RNA at a concentration of 0.2 mg/ml. Oocytes were incubated at 18° C. for 1-6 days in ND-96 before recording.
# (§3) Recordings were made at room temperature in modified ND-96 consisting of (mM): NaCl 96, MgCl2 1, CaCl2 0.1, BaCl2 3.5, HEPES 5, pH 7.5. Oocytes were voltage clamped using a Dagan CA1 two microelectrode amplifier (Dagan Corporation, Minneapolis, Minn.) interfaced to a Macintosh 7100/80 computer. The current passing electrode was filled with 0.7 M KCl, 1.7 M KCitrate, and the voltage recording electrode was filled with 1 M KCl. Throughout the experiment oocytes were superfused with modified ND-96 (control solution) or with ND-96 containing potential channel activators and blockers at a rate of approximately 3 ml/min. Data were acquired at 100 Hz and filtered at 33.3 Hz using Pulse software from HEKA Elektronik (Lambrecht, Germany). All recordings were performed from a holding potential of either 0 or −30 mV.
# [2] = system: DvLGIC/GluCl 7-1; test: Two-microelectrode voltage clamp of Xenopus oocytes injected with DvLGIC/GluCl 7-1 RNA
# Source text: as §1, §2, §3
# [3] = system: DvLGIC/GluCl 11; test: DvLGIC/GluCl 11 expressed in Xenopus oocytes, current response; conditions: concentration not given
# Sequence of DvLGIC/GluCl 11 (as listed by the source): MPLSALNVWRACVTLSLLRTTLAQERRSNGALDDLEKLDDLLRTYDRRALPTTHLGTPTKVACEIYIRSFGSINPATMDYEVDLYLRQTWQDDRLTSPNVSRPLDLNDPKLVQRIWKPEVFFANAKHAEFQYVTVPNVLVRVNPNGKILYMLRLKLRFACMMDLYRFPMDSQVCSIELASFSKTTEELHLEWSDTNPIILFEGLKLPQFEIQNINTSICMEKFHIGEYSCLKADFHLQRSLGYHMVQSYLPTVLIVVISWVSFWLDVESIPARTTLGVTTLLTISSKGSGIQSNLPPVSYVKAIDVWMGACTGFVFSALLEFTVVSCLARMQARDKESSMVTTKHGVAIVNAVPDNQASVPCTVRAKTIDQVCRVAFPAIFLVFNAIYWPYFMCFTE
# Source text: as §1
# (§4) Xenopus laevis oocytes were prepared and injected using standard methods previously described [Arena, J. P., Liu, K. K., Paress, P. S. & Cully, D. F. Mol. Pharmacol. 40, 368-374 (1991); Arena, J. P., Liu, K. K., Paress, P. S., Schaeffer, J. M. & Cully, D. F., Mol. Brain Res. 15, 339-348 (1992)]. […]
# [4] = system: DvLGIC/GluCl 10-2; test: DvLGIC/GluCl 10-2 expressed in Xenopus oocytes, current response; conditions: concentration not given
# Source text: as §1, §4
# [5] = 1 μM ivermectin phosphate, holding potential 0 or −30 mV
# [6] = Xenopus oocytes, concentration not given
# [7] = after 1 μM ivermectin phosphate
molecule,measurement,setting,value
ivermectin phosphate,current in response to application,[1]; [5],slowly activating current
same,concentration at which current activation was maximal,"[1]; Xenopus oocytes injected with DvLGIC/GluCl 1 mRNA, FIG. 9",1 µM
same,current in response to addition,[1]; [6],exhibit a current
same,reversibility of current upon wash-out,[1]; [7],irreversible
same,current in response to application,[2]; [5],slowly activating current
same,concentration at which current activation was maximal,"[2]; DvLGIC/GluCl 7-1 expressed in Xenopus oocytes, FIG. 10",~1 µM
same,current in response to addition,[2]; [6],exhibit a current
same,reversibility of current upon wash-out,[2]; [7],irreversible
same,current in response to addition,[3],exhibit a current
same,responsiveness of the channel to the substance,[4],not responsive
N[C@@H](CCC(=O)O)C(=O)O [glutamate],current in response to application,[1]; 1 mM glutamate,did not activate a current
same,current in response to application,[2]; 1 mM glutamate,did not activate a current
same,responsiveness of the channel to the substance,[4],not responsive
